Source: patent US4921860A, “Quinuclidyl- and tropanyl-pyridyl ethers as 5-HT3 receptor antagonists” (John Wyeth and Brother, Limited, priority 1987, dated 1990)

What was measured:
5-HT3 receptors [1] = molecular target: T1, 5-HT3 receptors (Oryctolagus cuniculus, UniProt A0A5F9C9J3); assay: 5-HT3 antagonistic activity in the isolated right atrium of the rabbit heart; format: cell-based; conditions: 5-HT evoked increase in spontaneous rate, read-out: apparent PKB (converted)
T1 construct: 5-HT3 antagonistic activity in the isolated right atrium of the rabbit heart; from tissue; host or cells: isolated right atrium of the rabbit heart (sympathetic nerve terminals)
T1 sequence (A0A5F9C9J3 1-494): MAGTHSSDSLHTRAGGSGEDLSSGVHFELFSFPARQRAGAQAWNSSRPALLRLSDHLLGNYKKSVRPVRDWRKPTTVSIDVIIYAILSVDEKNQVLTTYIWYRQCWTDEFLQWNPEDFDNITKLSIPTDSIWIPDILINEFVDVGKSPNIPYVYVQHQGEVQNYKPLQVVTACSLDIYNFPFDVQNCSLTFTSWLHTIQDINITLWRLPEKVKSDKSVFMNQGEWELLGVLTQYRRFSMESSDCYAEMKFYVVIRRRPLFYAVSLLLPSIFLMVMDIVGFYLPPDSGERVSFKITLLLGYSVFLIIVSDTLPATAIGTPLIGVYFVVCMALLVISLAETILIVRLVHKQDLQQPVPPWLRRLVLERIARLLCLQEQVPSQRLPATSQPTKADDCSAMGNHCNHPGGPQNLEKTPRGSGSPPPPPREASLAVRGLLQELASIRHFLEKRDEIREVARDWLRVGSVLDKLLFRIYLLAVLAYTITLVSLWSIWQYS
Protocol: The compounds of the invention are also tested for 5-HT3 antagonistic activity in the isolated right atrium of the rabbit heart based upon the method of Fozard J. R., Naunyn-Schmiedeberg's Arch. Pharmacol., 1984, 326, 36-44. The procedures relies upon the ability of 5-HT to stimulate 5-HT3 receptors present on sympathetic nerve terminals in the heart, causing release of noradrenaline which evokes an increase in the spontaneous rate of […]. The antagonist potency is expressed in a similar manner to that of the preceding test method i.e. as an apparent PKB.

5-HT3 receptors [2] = molecular target: T2, 5-HT3 receptors (Rattus norvegicus, UniProt P35563); assay: 5-HT3 receptor antagonism in the isolated vagus nerve of the rat (5-HT induced depolarisation); format: cell-based; conditions: isolated rat cervical vagus nerve; estimated from 5-HT concentration ratios; read-out: apparent pKB (KB is the antagonist dissociation constant) (converted)
T2 construct: tested for 5-HT3 receptor antagonism in the isolated vagus nerve of the rat; from tissue; host or cells: isolated cervical vagus nerve of the rat
T2 sequence (P35563 24-483): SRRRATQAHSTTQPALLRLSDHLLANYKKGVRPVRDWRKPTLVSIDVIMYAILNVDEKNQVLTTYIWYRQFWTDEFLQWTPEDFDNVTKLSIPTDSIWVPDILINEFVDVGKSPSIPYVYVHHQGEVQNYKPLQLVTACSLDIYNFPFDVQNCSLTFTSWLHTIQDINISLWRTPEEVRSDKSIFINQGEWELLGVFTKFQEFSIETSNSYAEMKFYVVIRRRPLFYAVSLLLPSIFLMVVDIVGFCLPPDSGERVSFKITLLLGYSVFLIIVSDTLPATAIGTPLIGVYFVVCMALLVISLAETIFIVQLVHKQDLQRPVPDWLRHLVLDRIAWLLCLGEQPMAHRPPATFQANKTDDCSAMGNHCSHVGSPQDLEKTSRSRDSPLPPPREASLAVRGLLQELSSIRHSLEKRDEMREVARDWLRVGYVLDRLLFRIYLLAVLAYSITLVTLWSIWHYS
Protocol: The pyridyl ethers are tested for 5-HT3 receptor antagonism in the isolated vagus nerve of the rat by a method based upon that of Ireland S. J. and Tyers M. B. Brit. J. Phamacol., 1987, 90, 229-238. The procedure relies upon the ability of 5-HT to induce depolaraisation of neurones in the cervical vagus nerve by a direct action of 5-HT3 receptors. A concentration response curve to 5-HT induced depolaraisation is obtained and the antagonists are added to the bath containing the isolated nerve before repeating the 5-HT concentration-response curve. Antagonist potency is estimated from the 5-HT concentration ratios and expressed as an apparent pKB value (where KB is the antagonist dissociation constant).

CN1[C@@H]2CC[C@H]1C[C@@H](Oc1ccccn1)C2 [Example 1, Endo 8 methyl-3-(2-pyridinyloxy)-8-azabicyclo[3.2.1]octane]
Kd (5-HT3 receptors [1]): 39.8 nM | Kb (5-HT3 receptors [2]): 631 nM
